From patent US20230085945A1, “ORTHOGONAL SAFETY SWITCHES TO ELIMINATE GENETICALLY ENGINEERED CELLS” (The Board of Trustees of the Leland Stanford Junior …, priority 2020, published 2023)

How the values were obtained:
[1] = tested on: ACTB^OiCasp9-mPlum;NANOG^iCasp9-YFP hPSCs and differentiated liver, bone and neural progenitors; assay: Killing of ACTB^OiCasp9-mPlum;NANOG^iCasp9-YFP hPSCs and differentiated derivatives by AP21 or AP20 (alamar blue); format: cell-based, human; conditions: dual-transgenic line; 1 nM, 24 hours
Method: FIG. 6: Rationale, design and implementation of the ACTB^OiCasP9-mPlum safety switch. A) Intended application of the dual ACTB^OiCasp9-mPlum;NANOG^iCasp9-YFP safeguard. B) Cas9 RNP/AAV6-based knock-in strategy for ACTB^iCasp9-mPlum targeting, which was performed in the NANOG^iCasp9-YFP hESC line. C) 5×10^5 ACTB^OiCasp9-mPlum; NANOG^iCasp9-YFP hESCs were treated with control media or 1-1000 nM AP21967 for 24 hours. Cell viability was analyzed using alamar blue. D) ACTB^OiCasp9-mPlum;NANOG^iCasp9-YFP and ACTB^TK-mPlum; NANOG^iCasp9-YFP hESCs (negative control), in addition to their respective differentiated derivatives, were treated for 24 hours with 1 nM of AP21967. E) 5×10^5 ACTB^OiCasp9-mPlum; NANOG^iCasp9-YFP hESCs, and their respective differentiated derivatives, were treated with control media, 1 nM of AP21967 or and 1 nM of AP20187 for 24 hours. Surviving cells were analyzed by alamar blue. F) 10^6 ACTB^OiCasp9-mPlum;NANOG^iCasp9-YFP hESCs engineered to express CAG-AkaLuciferase were treated with control media or 1 nM AP20187 for 24 hours, and then subcutaneously transplanted into the right and left dorsal flanks of NOD-SCID Il2rg^−/− mice (10^6 cells per flank). 4 weeks post-transplant, teratomas formed and AP21967 was intraperitoneally administered once at 10 mg/kg. […] Total flux (photons/sec) was measured for each animal and was averaged.

[2] = tested on: NANOG^iCasp9-YFP;ACTB^HSV-TK-mPlum hPSCs transplanted subcutaneously; assay: Teratoma formation after AP20 pre-treatment of dual-safeguard hPSCs; format: in vivo, NOD-SCID Il2rg^−/− mice; conditions: pre-treatment with 1 nM AP20 before transplantation
Method: FIG. 5: Implementation of the ACTB^TK-mPlum safety switch. A) NANOG^iCasp9-YFP;ACTB^TK-mPlum hESCs were treated with ganciclovir (or left untreated) for 24 hours, and subsequently ganciclovir was withdrawn and hESCs were cultured for 1 week in mTeSR1 to detect any surviving cells and to allow them to regrow. […] N.D.=not detected. B) NANOG^iCasp9-YFP;ACTB^TK-mPlum hESCs were differentiated into day 6 liver, sclerotome and neural progenitors and treated with ganciclovir at the indicated doses for the last 24 hours of differentiation. Cell survival was analyzed by counting at day 6 of differentiation. C) 10^6 NANOG^iCasp9-YFP; ACTB^TK-mPlum hESCs engineered to express CAG-AkaLuciferase were treated with control media or 1 nM AP20187 for 24 hours, and then subcutaneously transplanted into the right and left dorsal flanks of NOD-SCID Il2rg^−/− mice (10^6 cells per flank). […] Total flux (photons/sec) was measured for each animal and were averaged.
In vivo teratoma formation. […] Teratoma growth was monitored throughout the duration of the experiment via visual inspection and bioluminescent imaging.
Bioluminescent imaging. […] Subsequent image analysis was done in Aura with regions of interest (ROIs) drawn for each mouse to calculate Total Flux (photons/sec) in order to quantify teratoma growth over time.

## CC[C@H](C(=O)N1CCCC[C@H]1C(=O)O[C@H](CCc1ccc(OC)c(OC)c1)c1cccc(OCC(=O)NCC(CNC(=O)COc2cccc([C@@H](CCc3ccc(OC)c(OC)c3)OC(=O)[C@@H]3CCCCN3C(=O)[C@@H](CC)c3cc(OC)c(OC)c(OC)c3)c2)CN(C)C)c1)c1cc(OC)c(OC)c(OC)c1 [AP20]
[1]
  killing of undifferentiated and differentiated cells: selectively kill undifferentiated hPSCs
[2]
  teratoma formation in vivo: prevented them from forming teratomas in vivo
